Columns and labels:
Type in all cases: physicochemical
[1] = Solubility test of paliperidone and its salts in methanol (100 mg of sample); details: 100 mg of sample used
Description: (§1) The solubility data of paliperidone and solid state forms of paliperidone salts is furnished in the below table. The 100 mg of sample was used for solubility test.

[2] = Stability of the solid state form (as stated, no test data); details: room temperature, enhanced temperature, relative high humidities, aqueous media
Description: In one embodiment, the process disclosed herein provides stable solid state forms of paliperidone salts. The term “stable solid state form” refers to stability of the solid state form under the standard temperature and humidity conditions of testing of pharmaceutical products, wherein the stability is indicated by preservation of the original polymorphic form.

[3] = Solubility test of paliperidone and its salts in water (100 mg of sample); details: 100 mg of sample used
Description: as §1

Compound | Solubility Methanol [1] | Stability of solid state form [2] | Solubility Water [3]
Cc1nc2n(c(=O)c1CCN1CCC(c3noc4cc(F)ccc34)CC1)CCCC2O.O=C(O)/C=C/C(=O)O (stereo not shown) | Insoluble | stable at room temperature, enhanced temperature, at relative high humidities, and in aqueous media | 
Cc1nc2n(c(=O)c1CCN1CCC(c3noc4cc(F)ccc34)CC1)CCCC2O (racemic) [Paliperidone, (±)-3-[2-[4-(6-fluoro-1,2-benzisoxazol-3-yl)-1-piperidinyl]ethyl]-6,7,8,9-tetrahydro-9-hydroxy-2-methyl-4H-pyrido[1,2-a]pyrimidin-4-one] | Insoluble |  | Insoluble

From patent US20120100188A1, “SOLID STATE FORMS OF PALIPERIDONE SALTS AND PROCESS FOR THE PREPARATION THEREOF” (Actavis Group PTC ehf, priority 2009, published 2012)
